Laboratory results published in patent publication US11833137B2, “Substituted chromenones, IRE1 inhibitors, and methods of using same” (The Wistar Institute, priority 2018, dated 2023).

Key:
[1] = system: CD11b+/Ly6G+ granulocytic MDSCs; test: MDSC-mediated T cell suppression assay; type: in vivo, mouse; conditions: OT-I splenocytes, OVA peptide
Method: FIGS. 24A-24J illustrate the finding that targeting XBP-1s in CLL cells of MD4^+/−/Eμ-TCL1^+/+ mice leads to reduced production of sIgM, and decreased numbers and function of granulocytic MDSCs. […]. Gated CD11c−/CD11b+ populations were analyzed for Ly6C^intermediate/Ly6G+ granulocytic MDSCs and Ly6C+/Ly6G− monocytic MDSCs. (FIG. 24C) Percentages of CD11b+ myeloid cells in the blood of MD4^+/−/Eμ-TCL1^+/+ and XBP-1^KO/MD4^+/−/Eμ-TCL1^+/+ mice were plotted as mean±SEM. (FIG. 24D) Percentages of CD11b+/Ly6C^intermediate/Ly6G+ granulocytic MDSCs in the blood of MD4^+/−/Eμ-TCL1^+/+ and XBP-1^KO/MD4^+/−/Eμ-TCL1^+/+ mice were plotted as mean±SEM. […] Gated CD11b+/Ly6C^intermediate/Ly6G+ granulocytic MDSCs were analyzed for the expression of Arg-1. (FIG. 24F) Mean fluorescence intensity (MFI) of Arg-1 in gated CD11b+/Ly6C^intermediate/Ly6G+ granulocytic MDSCs from spleens of 5 MD4^+/−/Eμ-TCL1^+/+ and 5 XBP-1^KO/MD4^+/−/Eμ-TCL1^+/+ mice was plotted as mean±SEM. […] The ^3H-thymidine uptake was measured, and the percentages of proliferation were calculated by comparing to the positive control and plotted as mean±SEM. […] The percentage of CLL cells in PBMCs for each mouse was determined by flow cytofluorometry on day 6 and day 13, and compared with the CLL burden data of the mouse on day 0 (100%). […]

[2] = system: XBP-1s expression, 5TGM1 cells; test: XBP-1s immunoblot in 5TGM1 multiple myeloma cells; type: cell-based, mouse
Method: 5TGM1 mouse multiple myeloma cells, primary mouse B cells, primary mouse Eμ-TCL1 CLL cells, and human CLL cell lines (MEC2 and WaC3) were cultured at 37° C. in a 5% CO2 incubator using RPMI 1640 media (Gibco) supplemented with 10% heat-inactivated FBS, 2 mM L-glutamine, 100 U/mL penicillin G sodium, 1 mM sodium pyruvate, 0.1 mM non-essential amino acids, 100 μg/mL streptomycin sulfate and 0.1 mM β-mercaptoethanol (β-ME).
Cells were lysed using RIPA buffer (10 mM Tris-HCl, pH 7.4, 150 mM NaCl, 1% NP-40, 0.5% sodium deoxycholate, 0.1% SDS, and 1 mM EDTA) supplemented with protease inhibitors (Roche). Protein concentrations were determined by BCA assays (Pierce).
Samples were boiled in SDS-PAGE sample buffer (62.5 mM Tris-HCl, pH 6.8, 2% SDS, 10% glycerol, 0.1% bromophenol blue) with β-ME and analyzed by SDS-PAGE. Proteins were transferred to nitrocellulose membranes, blocked in 5% nonfat milk (wt/vol in PBS), and immunoblotted with indicated primary antibodies and appropriate horseradish peroxidase-conjugated secondary antibodies. Immunoblots were developed using Western Lighting Chemiluminescence Reagent (PerkinElmer).
To develop inhibitors with improved potency to target the IRE1/XBP-1 pathway, tricyclic chromenone-based IRE1 RNase inhibitors with different amine group (R^1) were synthesized and compared: allyloxycarbonyl (alloc) in B-H09 (1), —H in C-B06 (2), and —CH3 in C-D06 (3) (FIG. 1A). 5TGM1 multiple myeloma cells were chosen to evaluate inhibitory effects of these inhibitors because they have constitutively activated IRE1/XBP-1 pathways.

## O=c1oc2c(C3OCCCO3)c(O)ccc2c2c1CNCC2 [Compound 4, 7-(1,3-dioxan-2-yl)-8-hydroxy-1,2,3,4-tetrahydro-5H-chromeno[3,4-c]pyridin-5-one]
[1]
  suppression of T cell proliferation by MDSCs from injected mice: lost their immunosuppressive function
[2]; 10 μM for a course of 3 days
  suppression of XBP-1s expression, long term: continuously suppressed even after 3-day treatment
[2]; 24 h
  concentration that effectively blocks XBP-1s expression: 5 µM
[2]; 24 h, at 5 μM
  suppression of XBP-1s expression: more potent than 5
